Columns and labels:
αvβ5 integrin = αvβ5 integrin (Homo sapiens, UniProt P06756+P18084); experiment: ELISA affinity measurement on purified αvβ5 integrin; assay type: binding; details: compared with iRGD
αvβ3 integrin = αvβ3 integrin (Homo sapiens, UniProt P05106+P06756); experiment: ELISA affinity measurement on purified αvβ3 integrin; assay type: binding; details: compared with iRGD
[1] = tested on: de novo pancreatic ductal adenocarcinoma; experiment: In vivo peptide homing in PDAC mice; details: FAM-labeled peptide, approximately 200 µg, 2 hrs circulation
PPC1 cells = experiment: Inhibition of CRGDK phage binding to PPC1 cells; assay type: cell-based, human
Neuropilin-1 = molecular target: T1, Neuropilin-1 (Rattus norvegicus, UniProt Q9QWJ9); experiment: competition ELISA
T1 chain: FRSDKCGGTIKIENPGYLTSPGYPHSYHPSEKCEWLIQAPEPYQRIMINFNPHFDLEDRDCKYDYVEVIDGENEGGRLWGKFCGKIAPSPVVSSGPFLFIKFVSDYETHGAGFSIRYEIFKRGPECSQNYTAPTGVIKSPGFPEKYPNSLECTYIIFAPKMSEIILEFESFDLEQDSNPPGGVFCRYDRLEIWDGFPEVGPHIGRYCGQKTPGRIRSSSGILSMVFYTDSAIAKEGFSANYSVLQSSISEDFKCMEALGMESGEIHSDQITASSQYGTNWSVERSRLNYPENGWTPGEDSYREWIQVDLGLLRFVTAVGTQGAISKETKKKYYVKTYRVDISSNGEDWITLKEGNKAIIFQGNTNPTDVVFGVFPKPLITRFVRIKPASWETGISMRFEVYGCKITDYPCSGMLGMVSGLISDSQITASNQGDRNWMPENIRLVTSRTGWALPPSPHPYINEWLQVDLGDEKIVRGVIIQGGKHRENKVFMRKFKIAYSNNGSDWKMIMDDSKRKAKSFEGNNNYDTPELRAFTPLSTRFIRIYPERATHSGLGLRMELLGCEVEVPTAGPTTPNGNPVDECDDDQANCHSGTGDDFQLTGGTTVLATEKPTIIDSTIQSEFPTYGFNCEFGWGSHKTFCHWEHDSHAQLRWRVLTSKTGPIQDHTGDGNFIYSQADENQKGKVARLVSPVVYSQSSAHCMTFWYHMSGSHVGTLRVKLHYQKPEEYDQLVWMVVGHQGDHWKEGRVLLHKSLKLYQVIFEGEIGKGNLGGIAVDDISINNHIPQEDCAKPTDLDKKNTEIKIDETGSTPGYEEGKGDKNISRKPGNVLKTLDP

Chain of αvβ3 integrin (P06756 31-889 limits assumed): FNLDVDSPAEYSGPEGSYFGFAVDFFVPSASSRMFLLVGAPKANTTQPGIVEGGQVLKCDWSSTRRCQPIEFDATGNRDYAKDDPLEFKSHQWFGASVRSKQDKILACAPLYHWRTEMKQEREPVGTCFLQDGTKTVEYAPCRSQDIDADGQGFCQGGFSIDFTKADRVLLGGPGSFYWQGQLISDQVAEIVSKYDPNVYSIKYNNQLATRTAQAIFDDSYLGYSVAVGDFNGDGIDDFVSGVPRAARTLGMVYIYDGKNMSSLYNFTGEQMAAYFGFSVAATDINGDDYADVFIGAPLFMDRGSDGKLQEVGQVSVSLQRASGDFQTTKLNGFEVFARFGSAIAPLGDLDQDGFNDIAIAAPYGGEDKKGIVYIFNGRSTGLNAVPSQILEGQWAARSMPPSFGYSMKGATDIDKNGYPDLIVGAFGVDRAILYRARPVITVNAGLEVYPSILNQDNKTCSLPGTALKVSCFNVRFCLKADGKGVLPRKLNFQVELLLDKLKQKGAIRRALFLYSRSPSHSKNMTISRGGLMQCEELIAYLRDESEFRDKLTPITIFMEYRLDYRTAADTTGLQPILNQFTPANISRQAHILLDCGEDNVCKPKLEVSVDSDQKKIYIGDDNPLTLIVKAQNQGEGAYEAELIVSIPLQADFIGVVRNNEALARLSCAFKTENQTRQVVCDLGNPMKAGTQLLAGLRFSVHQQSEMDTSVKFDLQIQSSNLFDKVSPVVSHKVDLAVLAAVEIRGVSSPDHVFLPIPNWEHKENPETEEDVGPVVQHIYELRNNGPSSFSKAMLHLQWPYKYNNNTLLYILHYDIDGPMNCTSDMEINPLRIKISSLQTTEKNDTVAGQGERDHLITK
Chain of αvβ3 integrin (P06756 891-1048 limits assumed): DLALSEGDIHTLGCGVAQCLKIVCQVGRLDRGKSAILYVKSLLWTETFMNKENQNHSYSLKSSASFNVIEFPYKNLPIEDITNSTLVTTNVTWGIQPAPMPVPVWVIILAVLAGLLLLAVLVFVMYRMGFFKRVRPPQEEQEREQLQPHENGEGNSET
Chain of αvβ3 integrin (P05106 27-788): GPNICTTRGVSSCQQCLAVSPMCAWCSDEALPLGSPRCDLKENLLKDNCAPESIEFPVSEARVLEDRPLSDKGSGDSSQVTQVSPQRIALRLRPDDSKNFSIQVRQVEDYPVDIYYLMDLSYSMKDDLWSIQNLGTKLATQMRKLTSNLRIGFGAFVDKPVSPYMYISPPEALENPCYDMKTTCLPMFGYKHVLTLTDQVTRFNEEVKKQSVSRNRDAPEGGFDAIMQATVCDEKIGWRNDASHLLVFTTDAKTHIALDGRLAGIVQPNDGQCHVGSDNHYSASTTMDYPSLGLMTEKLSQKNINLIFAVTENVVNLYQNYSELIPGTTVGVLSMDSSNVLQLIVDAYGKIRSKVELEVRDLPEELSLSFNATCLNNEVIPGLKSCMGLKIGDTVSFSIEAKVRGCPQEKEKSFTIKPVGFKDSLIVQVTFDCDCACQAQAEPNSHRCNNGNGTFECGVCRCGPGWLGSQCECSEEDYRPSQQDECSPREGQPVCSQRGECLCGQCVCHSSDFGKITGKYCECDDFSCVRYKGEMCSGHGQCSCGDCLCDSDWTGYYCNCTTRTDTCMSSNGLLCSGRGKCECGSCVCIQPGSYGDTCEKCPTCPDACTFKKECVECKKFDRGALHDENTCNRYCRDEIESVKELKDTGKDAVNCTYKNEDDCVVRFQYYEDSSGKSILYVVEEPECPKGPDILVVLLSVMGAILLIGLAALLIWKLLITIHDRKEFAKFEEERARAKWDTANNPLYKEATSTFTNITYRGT
Chain of αvβ5 integrin (P06756 31-889 limits assumed): as the sequence (P06756 31-889 limits assumed) above
Chain of αvβ5 integrin (P06756 891-1048 limits assumed): as the sequence (P06756 891-1048 limits assumed) above
Chain of αvβ5 integrin (P18084 24-799): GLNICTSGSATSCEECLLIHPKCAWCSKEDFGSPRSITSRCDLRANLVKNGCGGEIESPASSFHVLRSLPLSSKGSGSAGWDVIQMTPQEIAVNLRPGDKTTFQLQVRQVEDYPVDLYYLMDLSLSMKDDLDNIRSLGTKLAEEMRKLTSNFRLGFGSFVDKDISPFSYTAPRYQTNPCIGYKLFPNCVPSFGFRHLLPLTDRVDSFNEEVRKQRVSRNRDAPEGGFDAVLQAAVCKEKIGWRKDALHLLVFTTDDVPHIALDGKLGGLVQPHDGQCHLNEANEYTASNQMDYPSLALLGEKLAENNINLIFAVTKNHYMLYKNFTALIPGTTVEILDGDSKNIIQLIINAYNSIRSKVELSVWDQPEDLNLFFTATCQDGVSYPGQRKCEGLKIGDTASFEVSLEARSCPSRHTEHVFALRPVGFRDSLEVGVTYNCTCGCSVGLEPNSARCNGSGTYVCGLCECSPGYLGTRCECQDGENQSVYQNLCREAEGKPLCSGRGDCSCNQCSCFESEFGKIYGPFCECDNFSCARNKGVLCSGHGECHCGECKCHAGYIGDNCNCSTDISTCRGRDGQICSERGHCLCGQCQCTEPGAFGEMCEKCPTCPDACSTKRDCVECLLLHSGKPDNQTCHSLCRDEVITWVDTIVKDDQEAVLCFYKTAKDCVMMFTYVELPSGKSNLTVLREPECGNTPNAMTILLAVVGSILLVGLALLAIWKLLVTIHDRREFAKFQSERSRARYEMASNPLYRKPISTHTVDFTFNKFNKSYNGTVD

Question: For CRGDC, which “affinity for αvβ5, by ability to block iRGD binding” value (αvβ5 integrin) is on record?
Answer: The value was “in the same range”.

Question: What about the “affinity for αvβ3, by ability to block iRGD binding” value (αvβ3 integrin) of the same molecule?
Answer: The value was “in the same range”.

Question: Which “tumor fluorescence after i.v. injection” value [1] does the source give for CRGEKGPDC [iRGE] here?
Answer: Its value is “minimal tumor fluorescence”.

Question: RPARPAR was tested. Which “inhibition of CRGDK phage binding to PPC1 cells by peptide” value (PPC1 cells) did it give?
Answer: The value was “inhibited”.

Question: With CRGDK as the molecule, how does the Kd (Neuropilin-1) read?
Answer: Its Kd is 1400 nM.
